Test results published in article PMC6628648, “Enabling microbial syringol conversion through structure-guided protein engineering” (Proceedings of the National Academy of Sciences of the …, 2019).
Like-named read-outs stand apart in the source and are kept apart here.

Assays:
GcoA variant F169S = molecular target: T1, GcoA variant F169S (Amycolatopsis sp., UniProt P0DPQ7, F169S); experiment: NADH consumption assay (specific activity) with GcoB; format: biochemical, Amycolatopsis sp. ATCC 39116; conditions: saturating (200 µM) substrate, pH 7.5, 25°C
T1 construct: GST (N, cleaved yes); made in house; host or cells: E. coli Rosetta 2 (DE3)

GcoA-F169A [1] = molecular target: T2, GcoA-F169A (Amycolatopsis sp., UniProt P0DPQ7, F169A); experiment: Substrate dissociation constant by ferric spin-state (UV/vis) titration; format: binding, Amycolatopsis sp. ATCC 39116; parameters: GST (N, cleaved yes); made in house; host or cells: E. coli Rosetta 2 (DE3)
Method: The equilibrium binding constant, KD, for GcoA-F169A and guaiacol, syringol, and 3MC was determined as described previously ([28]) and detailed in SI Appendix. […]
(§1) vi = Vmax[S]/(KM + [S]) (4)
(§2) Determination of substrate dissociation constants (KD) with F169A. 0-60 µM of guaiacol, syringol, or 3MC in 0.5 or 1 µM aliquots, were titrated into a cuvette containing 3 µM F169A GcoA in 25 mM HEPES, 50 mM NaCl, pH 7.5. The spectrum after each substrate addition was recorded, beginning with no substrate bound. The solution reached equilibrium before the next addition. A difference spectrum was made to illustrate the shift from a low-spin aquo-heme complex to the high-spin substrate-bound complex (spectral […]
(§3) shift from 417 nm to 388 nm). […] The absorbance […]
(§4) at 388 nm (Abs388-417 nm) was plotted as a function of [substrate], yielding a quadratic curve that was fit to equation (5) to determine […]
Δ Absobs = Δ Absmax2Et(L0 + Et + KD − √(L0 + Et + Kd)2 − 4Et ∗ L0) (5)
Where L0, Et, KD, and ΔAbsmax are the ligand concentrations, total protein (subunit) concentration, the equilibrium dissociation constant, and the maximum Abs388-417 nm, respectively. Reported values are the average of 2 or more measurements.
(§5) Formaldehyde determination. A colorimetric assay using tryptophan can be used to quantify the amount of formaldehyde produced in F169 GcoA/B reactions with guaiacol, syringol, or 3MC. 0.2 µM each of F169 GcoA mutants and GcoB were dissolved in air-saturated buffer (25 mM HEPES, 50 mM NaCl) in a cuvette at pH 7.5, 25 °C. 100 µg/mL catalase was added to each reaction to capture any H2O2 formed during the uncoupled reaction. 200 μM NADH was added and the background rate recorded. 100 (guaiacol, syringol, or 3MC) or 200 (syringol) μM of substrate was then added and the reaction monitored until there was no more change, due to either substrate, NADH or O2 depletion, whichever occurred first. […] After cooling, the absorbance was read at 575 nm and the [formaldehyde] calculated by using ε575 nm = 4.2 mM-1 cm-1, obtained with formaldehyde as a standard (1). […]

GcoA-F169A [2] = molecular target: T2, GcoA-F169A; experiment: Discontinuous HPLC specific activity (aromatic substrate disappearance); format: biochemical, Amycolatopsis sp. ATCC 39116; parameters: GST (N, cleaved yes); made in house; host or cells: E. coli Rosetta 2 (DE3); conditions: 300 μM substrate, 300 μM NADH, 0.2 μM F169A/GcoB
Method: HPLC was used to verify the O-demethylated product of GcoA-F169A GcoA/GcoB with guaiacol, syringol, or 3MC. In addition, discontinuous HPLC was used to determine the specific activity of aromatic product disappearance. Details are provided in SI Appendix. […]
as §1, §2, §3, §4
as §5, with “0.2 µM each of F169 GcoA mutants and GcoB were dissolved in air-saturated buffer (25 mM HEPES, 50 mM NaCl) in a cuvette at pH 7.5, 25 °C. 100 µg/mL catalase was added to each reaction to capture any H2O2 formed during the uncoupled reaction.” left out
HPLC for product identification and specific activity measurement. […] Integrated intensities vs [standards] were plotted and the resulting standard curves used to quantify the reactants and products.
For specific activity determination, 300 μM guaiacol, syringol, or 3MC were added from 0.1 M DMSO stocks to air saturated buffer (25 mM HEPES, 50 mM NaCl, pH 7.5), with a final volume of 1 mL. The [analyte] was measured via the above HPLC method. […]

T2 sequence (P0DPQ7 whole entry F169A): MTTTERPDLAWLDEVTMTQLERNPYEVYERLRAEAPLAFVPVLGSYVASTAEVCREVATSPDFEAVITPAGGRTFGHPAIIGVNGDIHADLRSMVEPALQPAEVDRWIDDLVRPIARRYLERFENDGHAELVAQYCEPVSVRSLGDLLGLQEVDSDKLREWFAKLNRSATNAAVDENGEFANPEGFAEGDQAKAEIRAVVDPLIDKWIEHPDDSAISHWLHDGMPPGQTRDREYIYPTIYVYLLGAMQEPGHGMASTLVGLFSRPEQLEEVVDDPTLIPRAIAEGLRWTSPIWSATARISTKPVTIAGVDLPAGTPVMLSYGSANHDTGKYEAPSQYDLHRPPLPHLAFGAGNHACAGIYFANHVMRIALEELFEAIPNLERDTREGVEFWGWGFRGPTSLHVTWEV
T1 sequence (P0DPQ7 whole entry F169S): as the sequence (P0DPQ7 whole entry F169A) above, with A169S counted along it

SMILES: COc1cccc(O)c1O [3MC, 3-methoxycatechol]
- Specific activity (GcoA variant F169S): 6.0 ± 0.8 μmol sec-1 μmol-1 GcoA
- Kd (GcoA-F169A [1]; GcoA-F169A, air-saturated 25 mM Hepes, 50 mM NaCl, pH 7.5, 25 °C, low-spin (417 nm) to high-spin (388 nm) change): 9.5 ± 0.2 µM
- aromatic substrate disappearance (specific activity) (GcoA-F169A [2]): 2.6 ± 0.3 μM s-1 μmol F169A-1

SMILES: COc1ccccc1O [guaiacol, 2-methoxyphenol]
- Specific activity (GcoA variant F169S): 5.7 ± 0.8 μmol sec-1 μmol-1 GcoA
- Kd (GcoA-F169A [1]): 7.1 ± 0.1 µM
- aromatic substrate disappearance (specific activity) (GcoA-F169A [2]): 5.6 ± 0.3 μM s-1 μmol F169A-1

SMILES: COc1cccc(OC)c1O [syringol, 2,6-dimethoxyphenol]
- Specific activity (GcoA variant F169S): 5.1 ± 0.9 μmol sec-1 μmol-1 GcoA
- Kd (GcoA-F169A [1]): 1.7 ± 0.07 µM
- aromatic substrate disappearance (specific activity) (GcoA-F169A [2]): 4.1 ± 0.3 μM s-1 μmol F169A-1
